Read-outs that look alike come from different tables or passages of the source.
Assays:
[1] = cited from earlier work
[2] = in vivo; cited from earlier work
[3] = rats, same dose; cited from earlier work
[4] = Chelator-induced uranium excretion (urine + bile, 24 h) in bile duct-cannulated rat model; type: in vivo
Experimental: (§1) Desferrithiocin Analogue Induced Excretion of Uranium. In order to compare results with previous chelator-induced iron excretion data, the uranium clearance studies were carried out in a bile duct-cannulated rat model. The animals were given uranyl acetate dihydrate SC at a dose of 5 mg/kg (the actual dose of uranium is 2.8 mg/kg). Bile and urine samples were collected for 24 hours after dosing. Kidneys were removed from selected animals and tissue uranium concentration measured. At least three animals were utilized in each experimental group. Data from two separate control studies (uranyl acetate/ no chelator) have now been combined for a total of 14 control animals. All uranium concentrations were measured using ICPMS. The data are reported as the total quantity of uranium excreted [urine +bile]; the mode of excretion [urine/bile] is also given. In addition the percentage of the administered dose of uranium cleared and chelator-induced uranium excretion vs the controls is also given. Four positive controls were evaluated: DTPA (13, Table 1) given as its trisodium calcium salt, DFO (14), N,N′-bis(2hydroxybenzyl)ethylenediamine-N,N′-diacetic acid, monosodium salt (NaHBED, 15) and the hydroxypyridone CP94 (16) shown to bind uranium [Pashalidis, et al., Effective complex formation in the interaction of 1,2-dimethyl-3-hydroxypyrid-4-one (Deferiprone or L1) with uranium(VI), Journal of Radioanalytical and Nuclear Chemistry 1999; 242:181-184.] The total metal cleared after 24 h in control rats was 10% of the administered dose. When DTPA, 13, was given IP or PO at 300 μmol/kg immediately after uranium, the excretion was 17% and 8% of the administered dose respectively (p>0.05). However, when the drug was given IP at a dose of 600 μmol/kg immediately post-metal, the uranium excretion was significant, 20% (p<0.005). This is consistent with previously published data using a similar animal model.[Domingo, et al., Comparative effects of the chelators sodium 4,5-dihydroxybenzene-1,3-disulfonate (Tiron) and diethylenetriaminepentaacetic acid (DTPA) on acute uranium nephrotoxicity in rats, Toxicology 1997; 118:49-59] DFO (14) and CP94 (16) given IP immediately post uranyl acetate were ineffective.
Desferrithiocin Analogue-Induced Excretion of Uranium. In order to compare results with previous chelator-induced iron excretion data, the uranium clearance studies were carried out in a bile duct-cannulated rat model. The animals were given uranyl acetate dihydrate SC at a dose of 5 mg/kg (the actual dose of uranium is 2.8 mg/kg). Bile and urine samples were collected for 24 hours after dosing. Kidneys were removed from selected animals and tissue uranium concentration measured. At least three animals were utilized in each experimental group. Data from two separate control studies (uranyl acetate/ no chelator) are combined for a total of 14 control animals. All uranium concentrations were measured using ICPMS. The data are reported as the total quantity of uranium excreted [urine +bile]; the mode of excretion [urine/bile] is also given. In addition the percentage of the administered dose of uranium cleared and chelator-induced uranium excretion vs the controls is also given. Four positive controls were evaluated: DTPA (1, Table 1) given as its trisodium calcium salt, DFO (2), N,N -bis(2-hydroxybenzyl)ethylenediamine-N,N-diacetic acid, monosodium salt (NaHBED, 3) and the hydroxypyridone CP94 (4) shown to bind uranium. The total metal cleared after 24 h in control rats was 10% of the administered dose. When DTPA, 1, was given IP or PO at 300 μmol/kg immediately after uranium, the excretion was 17% and 8% of the administered dose respectively (p>0.05). However, when the drug was given IP at a dose of 600 μmol/kg immediately post metal, the uranium excretion was significant, 20% (p<0.005). This is consistent with previously published data using a similar animal model.^2 DFO (2) and CP94 (4) given IP immediately post uranyl acetate were ineffective.

[5] = Renal uranium content in uranyl acetate-treated bile duct-cannulated rats (FIG. 3); type: in vivo, rat
Experimental: as §1
The most promising analogue in the (S)-2-(2,4-dihydroxyphenyl)-4,5-dihydro-4-thiazolinecarboxylic series is the methoxy analogue (S)-4′-(CH3O)-DADMDFT (11). Given IP at 300 μmol/kg 0.5 h before uranyl acetate or immediately thereafter, nearly 30% of the metal was cleared (Table 1). This was also true if the drug was given IP 0.5 or 2 h post metal. The drug retains some efficacy given 4 h post uranium; 16% of the metal is excreted (p<0.006). When the chelator was given SC immediately post uranium, 40% of the administered metal was cleared. The increased excretion is probably associated with a slower absorption of the ligand. The data from rodents given the drug orally is even more encouraging (Table 1). […] The most profound data are associated with uranium decorporation from the kidneys (FIG. 3). When DTPA is given IP or PO at a dose of 300 μmol/kg immediately post metal, there is no reduction in renal uranium relative to controls. However, (S)-4′-(CH3O)-DADMDFT (11) given orally at a dose of 300 μmol/kg immediately post metal reduces renal uranium by 37% (p<0.005).
There is a small (16%) reduction when the drug is given PO at a dose of 300 μmol/kg 2 h post uranium. However, when 11 is given PO at a dose of 600 μmol/kg 0.5 h post metal, the renal uranium content is reduced by 76% (p<0.001). When given PO at the same dose 1 h post uranium exposure, the reduction is still significant, 42% (p<0.006). In all sets of ligands, the most lipophilic chelator is always the most toxic. […] On the basis of this finding, a less lipophilic, more water-soluble ligand than 12 was assembled, (S)-4′-(HO)-DADFT-PE (18, Table 1), a polyether analogue.

[6] = iron-overloaded C. apella primate

Q: For O=C(O)[C@H]1CSC(c2ncccc2O)=N1 [Compound 2, (S)-4,5-dihydro-2-(3-hydroxy-2-pyridinyl)-4-thiazolecarboxylic acid], which ICE [1, 6] is on record?
A: The ICE was 4.8%.

Q: Which ICE [1, 6] does the source give for C[C@]1(C(=O)O)CSC(c2ccccc2O)=N1 [Compound 3, (S)-4,5-dihydro-2-(2-hydroxyphenyl)-4-methyl-4-thiazolecarboxylic acid] here?
A: Its ICE is 13%.

Q: And the “toxicity, in words” value [2]?
A: The value was “Severe gastrointestinal (GI) toxicity”.

Q: What about the “outcome of planned 10-day dosing regimen” value [3] of the same molecule?
A: Its value is “dead by day 5”.

Q: With O=C(O)[C@H]1CSC(c2ccccc2O)=N1 [Compound 4, (S)-4,5-dihydro-2-(2-hydroxyphenyl)-4-thiazolecarboxylic acid] as the molecule, how does the ICE ([1]; administered PO at a dose of 150 μmol/kg) read?
A: Its ICE is 12.4%.

Q: What about the ICE [1, 6] of the same molecule?
A: Its ICE is 12%.

Q: What about the “toxicity, in words” value [2] of the same molecule?
A: Its value is “Severe gastrointestinal (GI) toxicity”.

Q: And the “outcome of planned 10-day dosing regimen” value [3]?
A: Its value is “dead by day 5”.

Q: For C[C@]1(C(=O)O)CSC(c2ccc(O)cc2O)=N1 [Compound 10, (S)-2-(2,4-dihydroxyphenyl)-4,5-dihydro-4-methyl-4-thiazolecarboxylic acid], which “iron-clearing activity, in words” value ([1]; C. apella model) is on record?
A: The value was “compatible with iron clearance”.

Q: What about the ICE ([1]; given orally to the primates at an iron binding equivalent dose) of the same molecule?
A: Its ICE is 13.4±5.8%.

Q: And the “outcome of planned 10-day dosing regimen” value [3]?
A: The value was “did not display any frank toxicity”.

Q: And the “% of Administered Dose Cleared” value ([4]; 300 μmol/kg IP Immediate)?
A: The value was 19%.

Q: With O=C(O)CN(CCN(CC(=O)O)CC(=O)O)CCN(CC(=O)O)CC(=O)O [DTPA, diethylenetriaminepentaacetic acid, reference compound] as the molecule, how does the “reduction in renal uranium relative to controls” value ([5]; IP 300 μmol/kg immediately post metal) read?
A: Its value is “no reduction”.

Q: What about the “reduction in renal uranium relative to controls” value ([5]; PO 300 μmol/kg immediately post metal) of the same molecule?
A: Its value is “no reduction”.

Q: What about the “% of Administered Dose Cleared” value ([4]; 300 μmol/kg IP Immediate) of the same molecule?
A: The value was 17%.

Q: What about the “% of Administered Dose Cleared” value ([4]; 300 μmol/kg PO Immediate) of the same molecule?
A: Its value is 8%.

Q: And the “% of Administered Dose Cleared” value ([4]; 600 μmol/kg IP Immediate)?
A: The value was 20%.

Q: With COc1ccc(C2=N[C@@H](C(=O)O)CS2)c(O)c1 [drawing 12] as the molecule, how does the “% of Administered Dose Cleared” value ([4]; 300 μmol/kg IP 0.5 h Post) read?
A: Its value is 33%.

Q: What about the “Chelator-Induced U Excretion/Control” value ([4]; 300 μmol/kg IP 0.5 h Post) of the same molecule?
A: Its value is 3.3.

Q: And the “Uranium Excretion” value ([4]; 300 μmol/kg IP 0.5 h Post)?
A: The value was 917 ± 177 µg/kg.

Q: What about the “Uranium Excretion [urine/bite]” value ([4]; 300 μmol/kg IP 0.5 h Post) of the same molecule?
A: Its value is “[16/84]”.

Q: And the “% of Administered Dose Cleared” value ([4]; 300 μmol/kg IP 0.5 h Pre)?
A: Its value is 29%.

Q: What about the “Chelator-Induced U Excretion/Control” value ([4]; 300 μmol/kg IP 0.5 h Pre) of the same molecule?
A: Its value is 2.9.

Q: And the “Uranium Excretion” value ([4]; 300 μmol/kg IP 0.5 h Pre)?
A: Its value is 815 ± 211 µg/kg.

Q: What about the “Uranium Excretion [urine/bite]” value ([4]; 300 μmol/kg IP 0.5 h Pre) of the same molecule?
A: The value was 48/52.

Q: And the “% of Administered Dose Cleared” value ([4]; 300 μmol/kg IP 2 h Post)?
A: Its value is 30%.

Q: What about the “Chelator-Induced U Excretion/Control” value ([4]; 300 μmol/kg IP 2 h Post) of the same molecule?
A: The value was 3.0.

Q: What about the “Uranium Excretion” value ([4]; 300 μmol/kg IP 2 h Post) of the same molecule?
A: The value was 847 ± 335 µg/kg.

Q: And the “Uranium Excretion [urine/bite]” value ([4]; 300 μmol/kg IP 2 h Post)?
A: The value was “[46/54]”.

Q: And the “% of Administered Dose Cleared” value ([4]; 300 μmol/kg IP 4 h Post)?
A: The value was 16%.

Q: And the “Chelator-Induced U Excretion/Control” value ([4]; 300 μmol/kg IP 4 h Post)?
A: Its value is 1.6.

Q: What about the “Uranium Excretion” value ([4]; 300 μmol/kg IP 4 h Post) of the same molecule?
A: Its value is 444 ± 119 µg/kg.

Q: And the “Uranium Excretion [urine/bite]” value ([4]; 300 μmol/kg IP 4 h Post)?
A: The value was “[66/34]”.

Q: What about the “% of Administered Dose Cleared” value ([4]; 300 μmol/kg IP Immediate) of the same molecule?
A: Its value is 30%.

Q: And the “Chelator-Induced U Excretion/Control” value ([4]; 300 μmol/kg IP Immediate)?
A: Its value is 3.0.

Q: And the “Uranium Excretion” value ([4]; 300 μmol/kg IP Immediate)?
A: Its value is 838 ± 166 µg/kg.

Q: What about the “Uranium Excretion [urine/bite]” value ([4]; 300 μmol/kg IP Immediate) of the same molecule?
A: The value was “[64/36]”.

Q: What about the “% of Administered Dose Cleared” value ([4]; 300 μmol/kg PO 2 h Post) of the same molecule?
A: The value was 18%.

Q: And the “Chelator-Induced U Excretion/Control” value ([4]; 300 μmol/kg PO 2 h Post)?
A: The value was 1.8.

Q: What about the “Uranium Excretion” value ([4]; 300 μmol/kg PO 2 h Post) of the same molecule?
A: The value was 507 ± 182 µg/kg.

Q: And the “Uranium Excretion [urine/bite]” value ([4]; 300 μmol/kg PO 2 h Post)?
A: Its value is “[53/47]”.

Q: And the “% of Administered Dose Cleared” value ([4]; 300 μmol/kg PO Immediate)?
A: The value was 23%.

Q: And the “Chelator-Induced U Excretion/Control” value ([4]; 300 μmol/kg PO Immediate)?
A: Its value is 2.3.

Q: And the “Uranium Excretion” value ([4]; 300 μmol/kg PO Immediate)?
A: The value was 642 ± 101 µg/kg.

Q: And the “Uranium Excretion [urine/bite]” value ([4]; 300 μmol/kg PO Immediate)?
A: The value was “[43/57]”.

Q: And the “% of Administered Dose Cleared” value ([4]; 300 μmol/kg SC Immediate)?
A: The value was 40%.

Q: What about the “Chelator-Induced U Excretion/Control” value ([4]; 300 μmol/kg SC Immediate) of the same molecule?
A: The value was 4.0.

Q: What about the “Uranium Excretion” value ([4]; 300 μmol/kg SC Immediate) of the same molecule?
A: The value was 1130 ± 245 µg/kg.

Q: And the “Uranium Excretion [urine/bite]” value ([4]; 300 μmol/kg SC Immediate)?
A: The value was “[13/87]”.

Q: And the “% of Administered Dose Cleared” value ([4]; 600 μmol/kg PO 0.5 h Post)?
A: The value was 25%.

Q: What about the “Chelator-Induced U Excretion/Control” value ([4]; 600 μmol/kg PO 0.5 h Post) of the same molecule?
A: The value was 2.5.

Q: And the “Uranium Excretion” value ([4]; 600 μmol/kg PO 0.5 h Post)?
A: Its value is 698 ± 166 µg/kg.

Q: And the “Uranium Excretion [urine/bite]” value ([4]; 600 μmol/kg PO 0.5 h Post)?
A: Its value is “[24/76]”.

Q: What about the “% of Administered Dose Cleared” value ([4]; 600 μmol/kg PO 1 h Post) of the same molecule?
A: The value was 26%.

Q: What about the “Chelator-Induced U Excretion/Control” value ([4]; 600 μmol/kg PO 1 h Post) of the same molecule?
A: Its value is 2.6.

Q: And the “Uranium Excretion” value ([4]; 600 μmol/kg PO 1 h Post)?
A: Its value is 723 ± 128 µg/kg.

Q: What about the “Uranium Excretion [urine/bite]” value ([4]; 600 μmol/kg PO 1 h Post) of the same molecule?
A: The value was “[28/72]”.

Q: For C[C@@]1(C(=O)O)CSC(c2ccc(O)cc2O)=N1 [drawing 13], which “% of Administered Dose Cleared” value ([4]; 300 μmol/kg IP Immediate) is on record?
A: Its value is 19%.
